In patent US20230040770A1, “HETEROCYCLIC COMPOUND AND USE THEREOF” (TAKEDA PHARMACEUTICAL COMPANY LIMITED, priority 2019, published 2023):

Molecular target: T1, human orexin type 2 receptor (Homo sapiens, UniProt O43614)
T1 construct: expressed in transfected cells
T1 sequence (O43614 1-444): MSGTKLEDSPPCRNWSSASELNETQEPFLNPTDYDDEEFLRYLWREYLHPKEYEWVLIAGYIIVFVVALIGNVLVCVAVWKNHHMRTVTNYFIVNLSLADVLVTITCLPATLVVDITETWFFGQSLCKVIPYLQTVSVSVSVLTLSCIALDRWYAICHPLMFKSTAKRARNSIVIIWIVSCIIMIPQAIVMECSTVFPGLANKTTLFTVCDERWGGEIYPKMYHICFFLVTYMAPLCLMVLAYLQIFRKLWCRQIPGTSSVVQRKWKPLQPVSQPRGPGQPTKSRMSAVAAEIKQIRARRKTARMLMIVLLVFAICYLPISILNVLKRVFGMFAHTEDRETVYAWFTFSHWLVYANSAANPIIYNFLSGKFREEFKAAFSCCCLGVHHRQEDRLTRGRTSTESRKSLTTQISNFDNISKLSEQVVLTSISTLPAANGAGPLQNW
Assay: Measurement of orexin type 2 receptor agonist activity (calcium indicator fluorescence, CHO cells forcibly expressing human OX2 receptor)
Assay type: cell-based
Settings: compound at 3 μM; 0% = DMSO, 100% = orexin A (human) 10 nM
Summary of the method: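 Agonist response normalised between vehicle (0%) and orexin A at 10 nM final (100%), from kinetic Fluo-4 calcium signals recorded for about 2 min after compound addition. Cells: stable human OX2R CHO clone, dye-loaded 30 min at 37 °C plus 30 min at room temperature.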

| SMILES | OX2R agonist activity (3 μM, %) [%] |
| --- | --- |
| CCS(=O)(=O)N[C@H]1[C@@H](F)CN(C(=O)C(C)C)[C@H]1Cc1cccc(-c2ccccc2)c1F [Example 293, N-[(2S,3R,4S)-4-fluoro-2-[(2-fluoro[1,1′-biphenyl]-3-yl)methyl]-1-(2-methylpropanoyl)pyrrolidin-3-yl]ethanesulfonamide] | 83 |
| Cc1cccc(-c2cccc(C[C@H]3[C@@H](NS(=O)(=O)N(C)C)C(F)(F)CN3C(=O)C3(O)CCC3)c2F)c1 [Example 427, N′-[(2S,3R)-4,4-difluoro-2-[(2-fluoro-3′-methyl[1,1′-biphenyl]-3-yl)methyl]-1-(1-hydroxycyclobutane-1-carbonyl)pyrrolidin-3-yl]-N,N-dimethylsulfuric diamide] | 99 |
| CCCC(=O)N1CC(F)(F)[C@H](NS(=O)(=O)CC)[C@@H]1Cc1cccc(-c2cccc(F)c2)c1F [Example 257, N-{(2S,3R)-1-butanoyl-2-[(2,3′-difluoro[1,1′-biphenyl]-3-yl)methyl]-4,4-difluoropyrrolidin-3-yl}ethanesulfonamide] | 96 |
| CCS(=O)(=O)N[C@@H]1[C@H](Cc2cccc(-c3ccc(F)c(F)c3F)c2F)N(C(=O)C2CCO2)CC1(F)F (stereo partly drawn) [Example 471, N-{(2S,3R)-4,4-difluoro-1-(oxetane-2-carbonyl)-2-[(2,2′,3′,4′-tetrafluoro[1,1′-biphenyl]-3-yl)methyl]pyrrolidin-3-yl}ethanesulfonamide] | 94 |
| CCS(=O)(=O)N[C@@H]1[C@H](Cc2cccc(-c3cccc(F)c3)c2F)N(C(=O)C23CC(C2)C3)CC1(F)F [Example 93, N-{(2S,3R)-1-(bicyclo[1.1.1]pentane-1-carbonyl)-2-[(2,3′-difluoro[1,1′-biphenyl]-3-yl)methyl]-4,4-difluoropyrrolidin-3-yl}ethanesulfonamide] | 98 |
| CCS(=O)(=O)N[C@H]1[C@@H](F)CN(C(=O)C(C)C)[C@H]1Cc1cccc(-c2cccc(F)c2F)c1F [Example 297, N-{(2S,3R,4S)-4-fluoro-1-(2-methylpropanoyl)-2-[(2,2′,3′-trifluoro[1,1′-biphenyl]-3-yl)methyl]pyrrolidin-3-yl}ethanesulfonamide] | 95 |
| CCS(=O)(=O)N[C@@H]1[C@H](Cc2cccc(-c3cccc(C)c3)c2F)N(C(=O)N2CCC2)CC1(F)F [Example 285, N-{(2S,3R)-1-(azetidine-1-carbonyl)-4,4-difluoro-2-[(2-fluoro-3′-methyl[1,1′-biphenyl]-3-yl)methyl]pyrrolidin-3-yl}ethanesulfonamdie] | 98 |

Second part, the compound after the results:

| OX2R agonist activity (3 μM, %) [%] | SMILES |
| --- | --- |
| 98 | CCS(=O)(=O)N[C@H]1[C@@H](F)CN(C(=O)C2CC2)[C@H]1Cc1cccc(-c2cccc(C)c2F)c1F [Example 519, N-{(2S,3R,4S)-1-(cyclopropanecarbonyl)-2-[(2,2′-difluoro-3′-methyl[1,1′-biphenyl]-3-yl)methyl]-4-fluoropyrrolidin-3-yl}ethanesulfonamide] |
| 94 | CCS(=O)(=O)N[C@@H]1[C@H](Cc2cccc(-c3cccc(OC(F)F)c3)c2F)N(C(=O)C2(O)CCC2)CC1(F)F [Example 552, N-[(2S,3R)-2-{[3′-(difluoromethoxy)-2-fluoro[1,1′-biphenyl]-3-yl]methyl}-4,4-difluoro-1-(1-hydroxycyclobutane-1-carbonyl)pyrrolidin-3-yl]ethanesulfonamide] |
| 100 | O=C(C1CCO1)N1C[C@H](F)[C@H](NS(=O)(=O)C2CC2)[C@@H]1Cc1cccc(-c2ccccc2)c1F (stereo partly drawn) [Example 482, N-[(2S,3R,4S)-4-fluoro-2-[(2-fluoro[1,1′-biphenyl]-3-yl)methyl]-1-(oxetane-2-carbonyl)pyrrolidin-3-yl]cyclopropanesulfonamide] |
| 94 | Cc1cccc(-c2cccc(C[C@H]3[C@@H](NS(=O)(=O)C4CC4)C(F)(F)CN3C(=O)[C@H]3CCO3)c2F)c1F [Example 530, N-{(2S,3R)-2-[(2,2′-difluoro-3′-methyl[1,1′-biphenyl]-3-yl)methyl]-4,4-difluoro-1-[(2R)-oxetane-2-carbonyl]pyrrolidin-3-yl}cyclopropanesulfonamide] |
